Patent US20110136752A1, “NOVEL ANTIBIOTICS” (priority 2009, published 2011)

Legend:
[1] = system: different bacterial test strains; experiment: Effect of serum or BSA supplement on MIC of NOVO4; assay type: cell-based
Description: The lowest concentration of NOVO4 without any cell growth is the MIC (Minimal Inhibitory Concentration) of NOVO4. The data is the MIC of NOVO4 on different bacterial test strains in the presence of Mueller Hinton broth (MHB) or with MHB supplemented with either […].
These studies follow the procedure for determining the MIC described above in Example 5. Briefly, two-fold serial dilution of the NOVO4 compound are added to the test cells of interest, MRSA and VRE, and the lowest concentration of compound that inhibits growth after a period of incubation is considered to be the MIC. To determine the effect of serum on the activity of NOVO4, MIC in the absence of serum is compared to MIC in media supplemented with 10% calf bovine serum (ATCC 30-2030).

human red blood cells = assay type: cell-based
Description: The effect of NOVO4 on the hemolysis of human red blood cells was also tested. A total of 10 ml of expired packed red blood cells from the blood bank was gently added to 80 ml of PBS (Phosphate buffered saline), and pelleted at 1000 g for 5 minutes at 4° C. The upper phase and buffy layer (white blood cells) were removed. The cells are repeatedly washed by gentle mixing with PBS, and centrifugation until the upper phase is clear. In the last wash, 40 ml of 1× PBS with 0.05% BSA was added to half of the red blood cells while 40 ml of 1× PBS without BSA was added to the other half. The upper phase of the last wash was removed to leave a total volume of about 10 ml. The concentration of the red blood cells was measured by using the spectrophometer at 600 nm. An aliquot of the cells are diluted to a final density OD600 of 24 in 1× PBS, and another to a final density OD600 of 24 in 1× PBS with 0.05% BSA.
The compound NOVO4 is two-fold serially diluted (similar to that described above for mammalian NIH3T3 cytotoxicity assay) as 100× concentration in DMSO, ranging from 0.4 μg/ml to 400 μg/ml. […] After thorough mixing, the A450 was read using a Spectramax Plus Spectrophotometer, using wells with only 1× PBS as blanks […]

[2] = Single-dose acute toxicity in mice; conditions: mouse, in vivo; female CD-1 mice, SC, 3 doses of 50 mg/kg 2 hours apart in 0.5% methylocellulose, followed for 2 days
Description: Single-dose, acute toxicity experiments were carried out in female CD-1 mice. The animals were acclimated for 3 days and were 7 weeks old at the start of the experiments. Their weight ranged from 16 to 24 g.
In order to determine the maximum tolerated dose, a group of 3 mice was dosed with a total of 4.9 mg/kg of NOVO4 (10% DMSO in saline) delivered as two separate IV doses, 2 hr apart. In addition, another 3 mice were dosed subcutaneously with a total of 150 mg/kg of NOVO4 in 0.5% methylocellulose, delivered as 3 doses of 50 mg/kg each, 2 hours apart. The mice were then followed for 2 days.
This indicated a very high MTD of >150 mg/kg for NOVO4.

[3] = system: NIH3T3 mouse embryonic fibroblasts; experiment: Mammalian cytotoxicity, CellTiter 96 AQueous One Solution assay; assay type: cell-based; conditions: NIH3T3 cells, 24 hr, highest tested concentration 16 μg/ml
Description: Mammalian cytotoxicity assays were performed using NIH3T3 mouse embryonic fibroblasts (ATCC CRL-1658), and cytotoxicity was measured using the CellTiter 96® AQueous One Solution Cell Proliferation Assay (Promega, Madison, Wis., Cat: G3582), according to the manufacturer's recommendations.
100× working stocks of 2-fold serial dilution of NOVO4 in DMSO were created in a 96 well format. The highest concentration of the 100× concentration (working stock) was prepared by adding […] of the stock solution of NOVO4 (10 mg/ml in DMSO) for every 0.68 μl of DMSO to well A02. 0.5 μl of this 100× stock was added for every 0.5 μl of DMSO in well A03 to create a total of 7 two-fold serial dilution series, from 1600 μg/ml to 25 μg/ml (from highest in well A02 to A08,). A DMSO control was also included (wells in column A01, and A12). […]
The plate was visually inspected under a dissecting microscope, and the absorbance at 490 nm was read using a Spectramax Plus Spectrophotometer, with wells A12, and B12 reserved as blanks The signal of compound alone (well A11) was verified not to contribute to the absorbance at this wavelength. Next, 20 μl of the CellTiter 96® AQueous One Solution Cell Proliferation Assay (Promega, Madison, Wis., Cat: G3582) was added to each well, and the plate was read after 3 hr of incubation. […]

| Molecule | effect of 0.05% BSA on the MIC ([1]; MHB versus MHB + 0.05% BSA, depending on the test organisms) | effect of calf bovine serum on the MIC ([1]; MHB versus media supplemented with 10% calf bovine serum) | hemolysis (human red blood cells) | MTD at 2 days [2] [mg/kg] | LD50 [3] [µg/mL] | A450 (hemoglobin released by lysis of red blood cells) (human red blood cells) |
| --- | --- | --- | --- | --- | --- | --- |
| CC1\C=C/C=C\C=C/C=C\C=C/C(OC2OCC(O)C(O)C2N)C(C)(O)/C=C/C=C\C=C/C=C/C(=O)NC1 (stereo not drawn) [NOVO4] | either unchanged or lowered sightly | no significant effect | no significant hemolysis | > 150 | > 16 |  |
| Triton X100 [reference compound] |  |  |  |  |  | 0.41 |
